# Tests used:
# [1] = Toxicity / maximum tolerated dose in mice; assay type: in vivo
# Experimental: Importantly, given the role of the Wnt/β-catenin pathway as a regulator of intestinal stem cells [Korinek et al., Nat Genet, 1998. 19(4): 379-83; van de Wetering et al., Cell, 2002. […] Accordingly, mice were injected 5 days/week for 5 weeks at a range of concentrations between 50-125 mg/Kg and compared to vehicle-alone control. Toxicity was monitored by assessing mouse weight, blood counts and mortality. The MTD determination was performed at the fee-for-service, anti-tumor assessment facility at Memorial Sloan Kettering Cancer Center.
# [2] = target: Wnt/wg pathway, Wnt-responsive luciferase reporter dTF12; conditions: Gonsalves et al., PNAS 2011; read-out: IC50, β-catenin-responsive luciferase reporter (dTF12); cited from earlier work
# [3] = tested on: Wnt/β-catenin STF-LUC reporter in LNCaP-abl cells; test: β-catenin/Wnt-responsive STF16-LUC reporter with S37A β-catenin in LNCaP-abl cells; assay type: cell-based
# Experimental: LNCaP or LNCaP-abl (ABL) cells were cotransfected with 0.1 μg β-galactosidase and 0.2 μg S37A stabilized β-catenin together with the indicated luciferase reporter constructs; STF16-LUC (β-catenin reporter) and LB1-LUC (AR reporter). […] Luciferase activity was normalized to β-galactosidase expression.
# To determine the IC50 for the β-catenin/Wnt-responsive reporter, cells were cotransfected with β-galactosidase (LacZ) and a constitutively active S37A stabilized β-catenin mutant construct together with the reporter construct, STF16-LUC. To determine the IC50 for the AR-responsive construct, cells were cotransfected with LacZ and the AR responsive reporter construct, ARE-LUC. […] B) AR overexpression circumvents C3 repression of AR-responsive transcription. LNCaP cells were cotransfected with 0.1 μg LacZ and 0.2 μg of the AR responsive reporter construct, ARE-LUC, together with 0, 0.05, 0.1 and 0.2 μg of an AR expression vector. […] Luciferase activity was normalized to LacZ expression.
# 108(15): 5954-63], it had not been determined in prostate cancer cells. […] 69(8): 3332-8].
# HCT116 cells = test: Flow cytometry cell cycle analysis of HCT116 cells; assay type: cell-based; conditions: HCT116, 16 hrs, FIG. 9
# Experimental: In order to test the inhibitory effect of candidate compounds on the transcription of endogenous Wnt/β-cat target genes in HCT116 cells, lysates were prepared from cells that were either treated with candidate small molecules or DMSO control. […] Cell cycle arrest of compound treated HCT116 cells was further confirmed by the reduced number of phosphorylated Histone3 (PH3) positive cells, when cultured in the presence of candidate compounds (FIG. 10).
# Flow Cytometry analysis was performed on HCT116 cells treated with candidate compounds for 16 hrs per standard protocols. Briefly, compound treated cells were harvested and washed in 1×PBS followed by fixation in 70% Ethanol at 4° C. for 16 hrs. Cells were then washed in 1×PBS and treated with RNAse at 37° C. for 30′. Following extensive washes in 1×PBS, cellular DNA was stained with 500 ug/ml of Propidium Iodide at room temperature for 10′. Cells were washed again in 1×PBS and analysed by flow cytometry on a FACScalibur machine (Beckson Dickinson) at the NYU flow cytometry core facility.
# LNCaP-abl cells [4] = test: PARP cleavage immunoblot as marker of apoptosis, LNCaP-abl; assay type: cell-based; conditions: 20 μM, 72 hr
# LNCaP-abl cells [5] = test: Flow cytometry DNA content (propidium iodide), LNCaP-abl; assay type: cell-based; conditions: 20 μM, 24 hr
# Experimental: (§1) A) Cells were cultured in phenol-red free RPMI with either 5% charcoal-stripped FBS supplemented with 0.1 nM R1881 (LNCaP) or 10% charcoal-stripped FBS alone (LNCaP-abl). […] Neutral red uptake assay was performed at the end of treatment to estimate the number of viable cells. […] Fixed cells were stained with Propidium Iodide and analyzed for DNA content using flow cytometry. The first and the second red peak and the dashed area represent G0/G1, M and S-phase cell population, respectively.
# [6] = tested on: AR, PSA, c-myc, CDK1, UBE2C protein in LNCaP cells; test: Western blot time course of AR and β-catenin target proteins in LNCaP cells; assay type: cell-based
# Experimental: ABL cells were treated similarly, but cultured in 5% charcoal-stripped phenol-red free RPMI. The mRNA was extracted at each time point and relative levels of indicated genes were analyzed by Q-PCR and normalized to RPL19. B) Protein from LNCaP cells was analyzed at each time point and immunoblotted with indicated antibodies.
# Expression of tubulin (included as an internal loading control) and β-catenin were unaffected.
# LNCaP-abl cells [7] = test: Proliferation assay (neutral red uptake), LNCaP-abl; assay type: cell-based; conditions: 20 μM daily
# Experimental: as §1
# VCaP cells = test: Growth of VCaP cells; assay type: cell-based; conditions: 20 μM daily
# AR nascent mRNA = test: Q-PCR of nascent AR mRNA in LNCaP cells; assay type: cell-based; conditions: 20 μM, four hours, presence or absence of R1881
# Experimental: RNA was extracted, treated with deoxyribonuclease and subjected to cDNA synthesis. Relative levels of nascent AR mRNA were analyzed by Q-PCR using primers flanking exon/exon and exon/intron.
# LNCaP-abl tumors = test: LNCaP-abl xenograft model of castration-resistant prostate cancer in nude mice; assay type: in vivo; conditions: 100 mg/kg daily, intraperitoneal then intratumor injection, FIG. 23
# Experimental: Tumor volumes were measured twice weekly.
# The cell types for xenograft studies include LNCaP, LNCaP-abl and VCaP, which have all been previously utilized for xenograft studies and are able to recur following castration [Korenchuk et al., In Vivo, 2001. 15(2): 163-8; Culig et al., Br J Cancer, 1999. 81(2): 242-51; Graff et al., J Biol Chem, 2000. 275(32): 24500-5]. VCaP cells harbor a wild type androgen receptor and are androgen-dependent for growth [van Bokhoven et al., Prostate, 2003. 57(3): 205-25]. Other characteristics of cells to be considered in such experiments include the mutational status of AR, pTEN, p53, ETS fusion, and the year derived. Following determination of the MTD, 5×10^6 cells are mixed with an equal volume of Matrigel (BD Biosciences) and injected subcutaneously into the right and left flank of a BALB/c nu/nu outbred mouse. […] To assay growth, tumors are measured with Vernier calipers, and the total volume determined by using the formula 0.52×width×height×depth. Tumor growth is measured twice weekly and animals are also weighed twice weekly to assess toxicity.
# Methods: Rapidly cycling LNCaP-abl cells (15×10^6) were mixed with an equal volume of Matrigel and injected subcutaneously into the flank region of nude male mice. […] To assess growth, tumors were measured twice weekly with Vernier calipers, and the total volume was determined.
# LNCaP cells = test: Proliferation assay (neutral red uptake), LNCaP; assay type: cell-based; conditions: 20 μM daily
# Experimental: as §1
# [8] = 75 mg/Kg injected 5 days a week for 5 weeks
compound,measurement,setting,value
CCc1ccc(-c2nc(CSCC(=O)NCCc3ccccc3)c(C)o2)cc1 [Compound C3],body weight,[1]; [8],did not lose weight
same,gut toxicity,[1]; [8],no gut toxicity
same,histology of all major organs,[1]; [8],normal
same,toxicity (overall),[1]; [8],not toxic
same,toxicity,[1]; continuous injection of 20 mg/Kg by mini-pump for 5 weeks,no toxicity
same,IC50,[2],8.2 nM
same,IC50,[3],890 nM
same,Wnt reporter gene activity (STF16-LUC),"[3]; 20 uM, 24 hr",inhibits
same,cell cycle effect,HCT116 cells,G0/G1 arrest
same,PARP cleavage (apoptosis marker),LNCaP-abl cells [4],Increased levels of PARP cleavage
same,cell cycle effect by flow cytometry,LNCaP-abl cells [5],growth arrest of the cells in the G0/G1 phase
same,expression of tubulin and β-catenin protein,[6],unaffected
same,"levels of AR, PSA, c-myc, CDK1 and UBE2C protein",[6]; especially at 48-hour time point,diminished levels
same,cell growth,LNCaP-abl cells [7],completely abolished
same,cell growth,VCaP cells,completely abolished
same,levels of newly synthesized AR mRNA,AR nascent mRNA,diminishes
same,tumor volume,LNCaP-abl tumors,reduced tumor volume to a statistically significant degree
same,cell growth,LNCaP cells,completely abolished

# Source: US9173871B2, “Oxazole and thiazole compounds as beta-catenin modulators and uses thereof” (New York University, priority 2008, dated 2015)
